Experimental data: US12624026B2, “Inhibitors of SARM1” (Disarm Therapeutics, Inc., priority 2018, dated 2026)

What was measured:
SARM1 SAM-TIR = target: T1, SARM1 SAM-TIR (Homo sapiens, UniProt Q6SZW1); assay: biochemical; details: SAM-TIR lysate 5 μg/mL, 2 h pre-incubation, 5 μM NAD+, RapidFire MS of NAD+ and ADPR; read-out: SARM1 IC50;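 also: inhibition of SARM1 SAM-TIR NADase activity, i.e. NAD+ cleavage, using lysate of NRK1-HEK293T cells overexpressing the SAM-TIR fragment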
T1 construct: a fragment of the SARM1 molecule encompassing the SAM and TIR domains; made in house; host or cells: NRK1-HEK293T cells, transiently transfected; the cleared, unpurified lysate was used as the enzyme
T1 sequence (Q6SZW1 409-724 limits assumed): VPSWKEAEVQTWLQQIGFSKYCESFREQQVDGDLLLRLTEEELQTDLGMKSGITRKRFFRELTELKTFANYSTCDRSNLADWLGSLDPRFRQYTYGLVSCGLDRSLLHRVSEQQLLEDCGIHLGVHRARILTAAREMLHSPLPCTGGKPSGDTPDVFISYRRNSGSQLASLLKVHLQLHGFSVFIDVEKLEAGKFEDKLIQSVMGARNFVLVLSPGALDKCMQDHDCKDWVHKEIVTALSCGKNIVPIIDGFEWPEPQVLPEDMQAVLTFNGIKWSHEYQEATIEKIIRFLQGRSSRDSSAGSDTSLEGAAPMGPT

[1] = tested on: mouse dorsal root ganglion (DRG) drop culture; assay: Axon degeneration assay in mouse DRG drop culture; assay type: cell-based; details: protection of axon fragmentation, axonal transection or chemotoxic stimuli
Protocol: This Example illustrates an in vitro axon degeneration assay used to characterize compounds of Formula I or Formula II. This assay is used to test the efficacy of the compounds of Formula I or Formula II to prevent axonal degeneration in a mouse dorsal root ganglion (DRG) drop culture.
Mouse DRG Drop culture: Mouse dorsal root ganglion neurons (DRGs) were dissected out of E12.5 CD1 mice (50 ganglion per embryo) and incubated with 0.5% Trypsin solution containing 0.02% EDTA (Gibco) at 37° C. for 15 min. The cells were then triturated by gentle pipetting and washed 3 times with DRG growth medium (Neurobasal medium (Gibco) containing 2% B27 (Invitrogen), 100 ng/ml 2.5S NGF (Harland Bioproducts), […] 5-fluoro-2′deoxyuridine (Sigma), penicillin, and streptomycin). Cells were suspended in the DRG growth medium. DRG drop cultures were created by spotting 5000 cells/well into the center of each well of a 96-well tissue culture plate coated with poly-D-Lysine (0.1 mg/ml; Sigma) and laminin ([…]; Invitrogen). Cells were allowed to adhere to the plates in a humidified tissue culture incubator (5% CO2) for 15 min and then DRG growth medium was gently added ([…]).
Axon degeneration assay: Axonal degeneration was stimulated either by manual axonal transection using a scalpel blade, or chemotoxic stimuli. After an appropriate experimental time period, the DRG cultures were fixed in 1% PFA plus sucrose and kept in the fridge prior to imaging. Bright-field images of DRG axons and cell bodies were collected using the 20× water immersion lens of a Phenix automated confocal microscope (PerkinElmer) and quantitation of axonal performed using in-house developed scripts (Acapella, PerkinElmer).

N#Cc1c(O)nsc1Nc1cccc(C(F)(F)F)c1 [Example 12]
IC50 (SARM1 SAM-TIR): 1 to 5 µM | IC50 [1]: < 10 µM

N#Cc1c(O)nsc1Nc1cccc2ncccc12 [Example 27]
IC50 (SARM1 SAM-TIR): 1 to 5 µM | IC50 [1]: < 10 µM

Cn1sc(Nc2ccccc2C(F)(F)F)c(C#N)c1=O [Example 31]
IC50 (SARM1 SAM-TIR): < 1 µM | IC50 [1]: 10 to 30 µM
